This passage reports inhibition results from ChEMBL document CHEMBL2007661, “Compounds: GSK PKIS; Assays: UNC Frye lab” (2012).

The structures appear in SMILES notation. Values joined by “and” are separate entries in the source; they are usually repeats but may differ in a detail not shown here. Equal values may be shown once.

Details in all cases: at 1 µM
The target of test [1] is T1, Inhibitor of nuclear factor kappa-B kinase subunit epsilon (Homo sapiens) (UniProt Q14164).
T1 sequence (whole entry): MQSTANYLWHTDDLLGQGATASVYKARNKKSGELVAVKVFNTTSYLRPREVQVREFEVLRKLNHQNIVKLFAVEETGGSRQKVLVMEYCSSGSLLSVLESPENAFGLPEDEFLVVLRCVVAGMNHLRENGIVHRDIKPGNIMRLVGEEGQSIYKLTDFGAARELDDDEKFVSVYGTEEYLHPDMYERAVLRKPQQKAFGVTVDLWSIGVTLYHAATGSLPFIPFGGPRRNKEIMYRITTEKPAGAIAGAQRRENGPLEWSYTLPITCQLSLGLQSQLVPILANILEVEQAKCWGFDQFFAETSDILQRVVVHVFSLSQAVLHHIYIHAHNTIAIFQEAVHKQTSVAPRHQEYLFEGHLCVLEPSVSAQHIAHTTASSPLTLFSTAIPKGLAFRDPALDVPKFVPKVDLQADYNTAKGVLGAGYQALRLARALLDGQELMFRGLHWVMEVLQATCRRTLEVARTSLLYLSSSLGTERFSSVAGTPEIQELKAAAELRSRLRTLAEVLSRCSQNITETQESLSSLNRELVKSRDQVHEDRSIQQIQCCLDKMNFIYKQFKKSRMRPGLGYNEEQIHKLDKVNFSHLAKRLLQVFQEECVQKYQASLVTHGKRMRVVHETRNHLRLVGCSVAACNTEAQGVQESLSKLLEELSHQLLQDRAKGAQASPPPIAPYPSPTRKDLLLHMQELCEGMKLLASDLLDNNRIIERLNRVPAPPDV

Test [2] concerns the target T2, Inhibitor of nuclear factor kappa-B kinase subunit alpha (Homo sapiens) (UniProt O15111).
T2 sequence (whole entry): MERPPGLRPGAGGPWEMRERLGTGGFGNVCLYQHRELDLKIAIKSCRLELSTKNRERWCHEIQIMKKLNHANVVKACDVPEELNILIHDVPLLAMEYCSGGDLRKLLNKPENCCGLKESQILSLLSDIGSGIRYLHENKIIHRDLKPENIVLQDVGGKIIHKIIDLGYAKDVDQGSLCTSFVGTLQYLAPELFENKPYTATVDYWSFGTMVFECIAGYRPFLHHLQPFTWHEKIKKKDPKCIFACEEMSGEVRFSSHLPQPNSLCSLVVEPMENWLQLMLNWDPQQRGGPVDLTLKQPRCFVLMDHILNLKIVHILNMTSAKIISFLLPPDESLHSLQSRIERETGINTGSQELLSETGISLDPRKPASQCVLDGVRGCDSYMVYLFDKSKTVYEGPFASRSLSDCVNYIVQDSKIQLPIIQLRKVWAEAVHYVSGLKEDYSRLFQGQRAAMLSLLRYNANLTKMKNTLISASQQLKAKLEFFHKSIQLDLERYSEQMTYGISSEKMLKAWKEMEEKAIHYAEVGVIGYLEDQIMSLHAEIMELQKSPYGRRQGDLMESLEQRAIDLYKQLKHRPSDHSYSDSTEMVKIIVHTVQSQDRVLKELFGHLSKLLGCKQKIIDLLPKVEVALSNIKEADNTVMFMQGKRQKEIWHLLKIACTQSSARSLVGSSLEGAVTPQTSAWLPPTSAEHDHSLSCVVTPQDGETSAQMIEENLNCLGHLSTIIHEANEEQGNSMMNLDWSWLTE

For test [3], the target named is T3, Serine/threonine-protein kinase TBK1 (Homo sapiens) (UniProt Q9UHD2).
T3 sequence (whole entry): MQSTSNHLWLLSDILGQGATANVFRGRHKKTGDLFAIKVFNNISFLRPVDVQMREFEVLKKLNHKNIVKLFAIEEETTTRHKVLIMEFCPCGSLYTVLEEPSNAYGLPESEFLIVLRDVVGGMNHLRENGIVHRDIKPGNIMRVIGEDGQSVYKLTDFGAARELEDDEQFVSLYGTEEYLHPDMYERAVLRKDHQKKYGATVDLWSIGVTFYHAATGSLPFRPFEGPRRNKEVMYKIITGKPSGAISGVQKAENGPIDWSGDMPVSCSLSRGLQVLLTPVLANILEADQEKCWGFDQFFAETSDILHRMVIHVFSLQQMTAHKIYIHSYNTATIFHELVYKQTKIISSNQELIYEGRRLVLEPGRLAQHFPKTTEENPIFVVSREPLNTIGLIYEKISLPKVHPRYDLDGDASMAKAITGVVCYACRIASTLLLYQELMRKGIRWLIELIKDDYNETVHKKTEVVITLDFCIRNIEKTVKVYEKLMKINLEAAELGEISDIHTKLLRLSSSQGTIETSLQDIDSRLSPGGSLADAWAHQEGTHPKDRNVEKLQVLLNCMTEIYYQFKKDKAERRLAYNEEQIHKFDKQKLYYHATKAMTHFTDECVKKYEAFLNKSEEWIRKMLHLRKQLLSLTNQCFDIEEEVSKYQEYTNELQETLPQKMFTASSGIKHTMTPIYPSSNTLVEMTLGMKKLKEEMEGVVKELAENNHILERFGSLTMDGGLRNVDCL

As usually defined, the inhibition is the relative decrease from the control value, in per cent. As for `CS(=O)(=O)CCN(CC#N)Cc1ccc(-c2ccc3ncnc(Nc4ccc(OCc5cccc(F)c5)c(Cl)c4)c3c2)o1`, the inhibition in test [1] is 1% and 4%; in test [2], 1%; in test [3] it was 11% and 12%.
As for `COc1ccc(-c2cc(-c3c[nH]nc3-c3ccccn3)ccn2)cc1`, the inhibition is -2% and -1% in test [1]; 6% in test [2]; -4% and -2% in test [3].
With `COc1ccc2cc(-c3c(-c4ccncc4)nc(-c4ccc([S+](C)[O-])cc4C)n3C)ccc2c1` (stereo not drawn), the inhibition in test [1] is -1% and -2%; in test [2], -4% and -5%; in test [3], -2% and -3%.
As to `c1ccc(Cc2nc3ccc(Nc4ncnc5ccccc45)cc3[nH]2)cc1`, the inhibition in test [1] is -3% and -2%; in test [2] it was -3% and 1%; in test [3], -5% and -7%.
For `Fc1ccc(-c2ncn(C3CCNCC3)c2-c2ccnc(Oc3ccc(Oc4ccccc4)cc3)n2)cc1`, the inhibition in test [1] is 1%; in test [2], -5% and -4%; in test [3], 3% and 2%.
With `O=C(Nc1n[nH]c2nc(-c3ccco3)c(Br)cc12)C1CC1`, the inhibition in test [1] was 0%; in test [2], 85%; in test [3], 18% and 25%.
For the compound `O=C(Nc1n[nH]c2cc(-c3ccc(F)cc3)ccc12)C1CC1`, the inhibition in test [1] is 2% and -1%; in test [2] it was 2% and 12%; in test [3], 2% and 4%.
For the compound `NCc1ccc(-c2nc(-c3ccc(Cl)c(O)c3)c(-c3ccncc3)[nH]2)cc1`, the inhibition in test [1] was -1% and 0%; in test [2], -3% and -4%; in test [3] it was 14% and 16%.
In the case of `COc1ccc(Nc2ncc(-c3ccccc3)o2)cc1OC`, the inhibition in test [1] is 5% and 4%; in test [2], 1%; in test [3], 8% and 20%.
As to `Oc1cccc(-c2nc(-c3ccccc3)[nH]c2-c2ccncc2)c1`, the inhibition in test [1] was -1% and -3%; in test [2], 2%; in test [3], -1%.
With `CCn1c(-c2nonc2N)nc2ccccc21`, the inhibition in test [1] is -1% and -2%; in test [2], 24%; in test [3] it was -2% and -3%.
